# Test results published in US20010046987A1, “Oxazolidinones having a sulfoximine functionality” (priority 1999, published 2001).
# Experiments:
# Streptococcus pneumoniae = assay: MIC by agar dilution, SPNE 9912; assay type: cell-based; conditions: for MIC: Streptococcus pneumoniae, strain SPNE 9912, read-out: Antibacterial Activity Minimum Inhibitory Concentration SPNE 9912; for Antibacterial Activity Minimum Inhibitory Concentration SPNE 9912: strain SPNE 9912
# Text: (§1) The in vitro activity of compounds of this invention can be assessed by standard testing procedures such as the determination of minimum inhibitory concentration (MIC) by agar dilution as described in “Approved Standard.
# Enterococcus faecium = assay: MIC by agar dilution, EFAE 12712; assay type: cell-based; conditions: for MIC: Enterococcus faecium, strain EFAE 12712, read-out: Antibacterial Activity Minimum Inhibitory Concentration EFAE 12712; for Antibacterial Activity Minimum Inhibitory Concentration EFAE 12712: strain EFAE 12712
# Text: as §1
# Enterococcus faecalis = assay: MIC by agar dilution, EFAE 9217; assay type: cell-based; conditions: for MIC: Enterococcus faecalis, strain EFAE 9217, read-out: Antibacterial Activity Minimum Inhibitory Concentration EFAE 9217; for Antibacterial Activity Minimum Inhibitory Concentration EFAE 9217: strain EFAE 9217
# Text: as §1
# Moraxella catarrhalis = assay: MIC by agar dilution, MCAT 30607; assay type: cell-based; conditions: for MIC: Moraxella catarrhalis, strain MCAT 30607, read-out: Antibacterial Activity Minimum Inhibitory Concentration MCAT 30607; for Antibacterial Activity Minimum Inhibitory Concentration MCAT 30607: strain MCAT 30607
# Text: as §1
# [1] = system: Staphylococcus epidermidis; assay: MIC by agar dilution, SEPI 30593; assay type: cell-based; conditions: for MIC: Staphylococcus epidermidis, strain SEPI 30593, read-out: Antibacterial Activity Minimum Inhibitory Concentration SEPI 30593; for Antibacterial Activity Minimum Inhibitory Concentration SEPI 30593: strain SEPI 30593
# Text: as §1
# Streptococcus pyogenes = assay: MIC by agar dilution, SPYO 152; assay type: cell-based; conditions: for MIC: Streptococcus pyogenes, strain SPYO 152, read-out: Antibacterial Activity Minimum Inhibitory Concentration SPYO 152; for Antibacterial Activity Minimum Inhibitory Concentration SPYO 152: strain SPYO 152
# Text: as §1
# H. influenzae = assay: MIC by agar dilution, HINF 30063; assay type: cell-based; conditions: for MIC: Haemophilus influenzae, strain HINF 30063, read-out: Antibacterial Activity Minimum Inhibitory Concentration HINF 30063; for Antibacterial Activity Minimum Inhibitory Concentration HINF 30063: strain HINF 30063
# Text: as §1
# Staphylococcus aureus = assay: MIC by agar dilution, SAUR 9213; assay type: cell-based; conditions: for MIC: Staphylococcus aureus, strain SAUR 9213, read-out: Antibacterial Activity Minimum Inhibitory Concentration SAUR 9213; for Antibacterial Activity Minimum Inhibitory Concentration SAUR 9213: strain SAUR 9213
# Text: as §1
SMILES,MIC (Streptococcus pneumoniae) [µg/mL],MIC (Enterococcus faecium) [µg/mL],MIC (Enterococcus faecalis) [µg/mL],MIC (Moraxella catarrhalis) [µg/mL],MIC [1] [µg/mL],melting point,MIC (Streptococcus pyogenes) [µg/mL],MIC (H. influenzae) [µg/mL],MIC (Staphylococcus aureus) [µg/mL],Antibacterial Activity Minimum Inhibitory Concentration SPNE 9912 (Streptococcus pneumoniae) [µg/mL],Antibacterial Activity Minimum Inhibitory Concentration EFAE 12712 (Enterococcus faecium) [µg/mL],Antibacterial Activity Minimum Inhibitory Concentration EFAE 9217 (Enterococcus faecalis) [µg/mL],Antibacterial Activity Minimum Inhibitory Concentration MCAT 30607 (Moraxella catarrhalis) [µg/mL],Antibacterial Activity Minimum Inhibitory Concentration SEPI 30593 [1] [µg/mL],Antibacterial Activity Minimum Inhibitory Concentration SPYO 152 (Streptococcus pyogenes) [µg/mL],Antibacterial Activity Minimum Inhibitory Concentration HINF 30063 (H. influenzae) [µg/mL],Antibacterial Activity Minimum Inhibitory Concentration SAUR 9213 (Staphylococcus aureus) [µg/mL]
"CCC(=S)NC[C@H]1CN(c2ccc(N3CCS(=N)(=O)CC3)c(F)c2)C(=O)O1 [Example 2, N-({(5S)-3-[3-Fluoro-4-(1-imino-1-oxido-1λ^4,4-thiazinan-4-yl)phenyl]-2-oxo-1,3-oxazolidin-5-yl}methyl)propanethioamide]",0.25,0.5,0.5,2,0.25,189 to 190 °C,0.25,2,1,–,–,–,–,–,–,–,–
"N=S1(=O)CCN(c2ccc(N3C[C@H](CNC(=S)C4CC4)OC3=O)cc2F)CC1 [Example 3, N-({(5S)-3-[3-Fluoro-4-(1-imino-1-oxido-1λ^4,4-thiazinan-4-yl)phenyl]-2-oxo-1,3-oxazolidin-5-yl}methyl)cyclopropanecarbothioamide]",0.25,0.5,1,1,0.25,209 to 210 °C (dec.),0.25,4,1,–,–,–,–,–,–,–,–
"CC[N-][S@+2]1([O-])CC[C@@H](c2ccc(N3C[C@H](CNC(=S)CC)OC3=O)cc2F)CC1 [Example 15, N-({(5S)-3-[3-Fluoro-4-[1-(ethylimino)-1-oxidohexahydro-1λ^4-thiopyran-4-yl]phenyl]-2-oxo-1,3-oxazolidin-5-yl}methyl)propanethioamide, Z-isomer]",0.5,1,1,2,1,200 to 201 °C,0.5,8,2,–,–,–,–,–,–,–,–
"CCC(=S)NCC1CN(c2ccc(C3CC[S+2]([O-])([N-]Cc4ccccc4)CC3)c(F)c2)C(=O)O1 [Example 16, N-({(5S)-3-[3-Fluoro-4-[1-[(phenylmethyl)imino]-1-oxidohexahydro-1λ^4-thiopyran-4-yl]phenyl]-2-oxo-1,3-oxazolidin-5-yl}methyl)propanethioamide, Z-isomer]",0.25,1,1,2,1,207 to 208 °C,0.5,> 64,2,–,–,–,–,–,–,–,–
"CCC(=S)NCC1CN(c2ccc(C3CC[S+2]([O-])([N-]C(=O)NC)CC3)c(F)c2)C(=O)O1 [Example 18, N-({(5S)-3-[3-Fluoro-4-(1-{[(methylamino)carbonyl]imino}-1-oxidohexahydro-1λ^4-thiopyran-4-yl)phenyl]-2-oxo-1,3-oxazolidin-5-yl}methyl)propanethioamide, Z-isomer]",0.25,1,1,4,1,203 to 204 °C,0.5,8,2,–,–,–,–,–,–,–,–
"CCC(=S)NCC1CN(c2ccc(C3CC[S+2]([O-])([N-]C(=O)OC)CC3)c(F)c2)C(=O)O1 [Example 19, N-({(5S)-3-[3-Fluoro-4-(1-[(methoxycarbonyl)imino]-1-oxidohexahydro-1λ^4-thiopyran-4-yl)phenyl]-2-oxo-1,3-oxazolidin-5-yl}methyl)propanethioamide, Z-isomer]",0.25,1,–,2,0.5,217 to 218 °C,0.25,2,1,–,–,–,–,–,–,–,–
"CCC(=S)NC[C@H]1CN(c2ccc([C@H]3CC[S@+2]([O-])([N-]C(N)=O)CC3)c(F)c2)C(=O)O1 [Example 22, N-({(5S)-3-[3-Fluoro-4-[1-[(aminocarbonyl)imino]-1-oxidohexahydro-1λ^4-thiopyran-4-yl]phenyl]-2-oxo-1,3-oxazolidin-5-yl}methyl)propanethioamide, Z-isomer]",0.125,0.5,0.5,2,0.05,236 to 238 °C (dec.),0.5,4,2,–,–,–,–,–,–,–,–
"CC(=O)N=S1(=O)CCN(c2ccc(N3C[C@H](CNC(C)=O)OC3=O)cc2F)CC1 [PREP 2, N-({(5S)-3-[3-Fluoro-4-(1-acetylimino-1-oxido-1λ^4,4-thiazinan-4-yl)phenyl]-2-oxo-1,3-oxazolidin-5-yl}methyl)acetamide]",–,–,–,–,–,–,–,–,–,1,4,2,8,2,2,32,16
"CN=S1(=O)CCN(c2ccc(N3C[C@H](CNC(C)=O)OC3=O)cc2F)CC1 [PREP 3, N-({(5S)-3-[3-Fluoro-4-(1-methylimino-1-oxido-1λ^4,4-thiazinan-4-yl)phenyl]-2-oxo-1,3-oxazolidin-5-yl}methyl)acetamide]",–,–,–,–,–,–,–,–,–,1,4,4,8,2,2,16,16

# Second part, led by results:
MIC (Streptococcus pneumoniae) [µg/mL],MIC (Enterococcus faecium) [µg/mL],MIC (Enterococcus faecalis) [µg/mL],MIC (Moraxella catarrhalis) [µg/mL],MIC [1] [µg/mL],melting point,MIC (Streptococcus pyogenes) [µg/mL],MIC (H. influenzae) [µg/mL],MIC (Staphylococcus aureus) [µg/mL],SMILES,Antibacterial Activity Minimum Inhibitory Concentration SPNE 9912 (Streptococcus pneumoniae) [µg/mL],Antibacterial Activity Minimum Inhibitory Concentration EFAE 12712 (Enterococcus faecium) [µg/mL],Antibacterial Activity Minimum Inhibitory Concentration EFAE 9217 (Enterococcus faecalis) [µg/mL],Antibacterial Activity Minimum Inhibitory Concentration MCAT 30607 (Moraxella catarrhalis) [µg/mL],Antibacterial Activity Minimum Inhibitory Concentration SEPI 30593 [1] [µg/mL],Antibacterial Activity Minimum Inhibitory Concentration SPYO 152 (Streptococcus pyogenes) [µg/mL],Antibacterial Activity Minimum Inhibitory Concentration HINF 30063 (H. influenzae) [µg/mL],Antibacterial Activity Minimum Inhibitory Concentration SAUR 9213 (Staphylococcus aureus) [µg/mL]
0.5,2,1,2,2,165.5 to 167 °C,1,> 64,2,"CCC(=S)NCC1CN(c2ccc(C3CC[S+2]([O-])([N-]CCCc4ccccc4)CC3)c(F)c2)C(=O)O1 [Example 17, N-({(5S)-3-[3-Fluoro-4-[1-[(3-phenylpropyl)imino]-1-oxidohexahydro-1λ^4-thiopyran-4-yl]phenyl]-2-oxo-1,3-oxazolidin-5-yl}methyl)propanethioamide, Z-isomer]",–,–,–,–,–,–,–,–
< 0.06,0.25,0.25,0.25,0.25,222 to 228 °C,0.125,> 64,0.5,"CCC(=S)NCC1CN(c2ccc(C3CC[S+2]([O-])([N-]C(=O)Nc4ccc([N+](=O)[O-])cc4)CC3)c(F)c2)C(=O)O1 [Example 21, N-({(5S)-3-[3-Fluoro-4-(1-{[[(4-nitrophenyl)amino]carbonyl]imino}-1-oxidohexahydro-1λ^4-thiopyran-4-yl)phenyl]-2-oxo-1,3-oxazolidin-5-yl}methyl)propanethioamide, Z-isomer]",–,–,–,–,–,–,–,–
0.25,1,0.5,4,2,221 to 222 °C,0.5,4,2,"CCC(=S)NC[C@H]1CN(c2ccc([C@H]3CC[S@+2]([O-])([N-]CC(N)=O)CC3)c(F)c2)C(=O)O1 [Example 23, N-({(5S)-3-[3-Fluoro-4-[1-[[(aminocarbonyl)methyl]imino]-1-oxidohexahydro-1λ^4-thiopyran-4-yl]phenyl]-2-oxo-1,3-oxazolidin-5-yl}methyl)propanethioamide, Z-isomer]",–,–,–,–,–,–,–,–
0.25,1,0.5,2,0.5,201 to 202 °C (dec.),0.5,4,1,"C[N-][S+2]1([O-])CCC(c2ccc(N3CC(CNC(=S)C4CC4)OC3=O)cc2F)CC1 [Example 29, N-({(5S)-3-[3-Fluoro-4-[1-(methylimino)-1-oxidohexahydro-1λ^4-thiopyran-4-yl]phenyl]-2-oxo-1,3-oxazolidin-5-yl}methyl)cyclopropanecarbothioamide, Z-isomer]",–,–,–,–,–,–,–,–
